Measured values: patent US12582661B2, “Synthesis and application of class of respiratory syncytial virus inhibitors” (SHANGHAI ARK BIOPHARMACEUTICAL CO., LTD., priority 2020, dated 2026)
Like-named read-outs stand apart in the source and are kept apart here. Values belong to the compound of their own block, whether it stands above or below them.

Key:
[1] = test system: respiratory syncytial virus; details: cited from earlier work
RSV Long strain = assay: Virus cytopathic effect (CPE) assay, anti-RSV activity in HEp-2 cells; type: cell-based; details: human respiratory syncytial virus, 96 h, RSV Long strain 0.5 MOI, CellTiter-Glo after 4 days
Method: HEp-2 cells (ATCC CCL-23, human laryngeal carcinoma epithelial cells) were purchased from American Type Culture Collection and the culture conditions were as follows: 1% double antibody was added to Dulbecco modified Eagle medium (DMEM) medium containing 10% fetal bovine serum (FBS), and maintained in a 5% CO2 incubator and cultured at 37° C. To evaluate the anti-RSV activity of compounds, cells were seeded in a 96-well plate at a density of 5×10^3 cells/well in Hyclone™ (DMEM) containing 10% fetal bovine serum (FBS). The following day, cells were infected with a 0.5 MOI of RSV Long strain (ATCC) in the presence of 3-fold serial dilutions of compound to a total volume of 100 μL per well. The cell viability was evaluated by the cell counting kit CellTiter-Glo Reagent after 4 days. The fluorescence signal was read on a multi-mode microplate reader and the 50% effective concentration EC50 was determined by the fluorescence value. The RSV inhibition activities of the compounds involved in Examples 1 to 15 disclosed herein were evaluated according to the above method, and the results are shown in Table 3 below.

[2] = Pharmacokinetics in ICR mice, plasma drug concentrations; type: in vivo; details: for AUC(0-inf) / Cmax / Tmax / clearance / half-life / AUC(0-t) / Vd: ICR, mouse plasma; for AUC(0-t): read-out: AUC0-12; for Vd: read-out: Vss; for concentration at 0.083 h / concentration at 0.25 h / concentration at 0.5 h / concentration at 1 h / concentration at 2 h / concentration at 4 h / concentration at 8 h / concentration at 24 h / concentration at 12 h: mouse, plasma; for concentration at 0.083 h / concentration at 0.25 h / concentration at 0.5 h / concentration at 1 h / concentration at 2 h / concentration at 4 h / concentration at 8 h / concentration at 24 h / F / concentration at 12 h: ICR mice; for F: p.o. 10 mg/kg vs i.v. 2 mg/kg
Method: The pharmacokinetics were further tested of Example 4 and Example 7 disclosed herein and Example 61-1 (Comparative Example 1) in patent WO2013020993 in ICR mice. A single intravenous injection (dose of 2 mg/kg) and a single oral administration (dose of 10 mg/kg) were taken respectively. Blood collection point: before administration, 5 min, 15 min, 30 min, 1 h, 2 h, 4 h, 8 h, 12 h, 24 h after administration. The same method was applied to the pharmacokinetics of the above Comparative Example 1 in ICR mice, with a single intravenous injection (dose of 2 mg/kg) and a single oral administration (dose of 10 mg/kg) respectively.

RSV = details: oral; cited from earlier work

Compound: CC(C)C(=O)OC[C@@]1(CCl)O[C@@H](n2ccc(N)nc2=O)[C@H](F)[C@@H]1OC(=O)C(C)C [ALS-8176]
- volunteers with reduced respiratory syncytial virus load [1]: more than 85%

Compound: Cc1ccc2nc(N3CCS(=O)(=O)c4ccccc4C3)nc(N3CC(N)C3)c2c1 [Example 1, 4-(4-(3-Aminoazetidin-1-yl)-6-methylquinazolin-2-yl)-2,3,4,5-tetrahydrobenzo[f][1,4]thiazepine 1,1-dioxide]
- IC50 (RSV Long strain): 4.4 nM

Compound: Cc1ccc2nc(N3CCS(=O)(=O)c4ccccc4C3)nc(NCC3CNC3)c2c1 [Example 2, 4-(4-((Azetidin-3-ylmethyl)amino)-6-methylquinazolin-2-yl)-2,3,4,5-tetrahydrobenzo[f][1,4]thiazepine 1,1-dioxide]
- IC50 (RSV Long strain): 6.3 nM

Compound: Cc1ccc2nc(N3CCS(=O)(=O)c4ccccc4C3)nc(N3CC(CN)(CO)C3)c2c1 [Example 3, 4-(4-(3-(Aminomethyl)-3-(hydroxymethyl)azetidin-1-yl)-6-methylquinazolin-2-yl)-2,3,4,5-tetrahydrobenzo[f][1,4]thiazepine 1,1-dioxide]
- IC50 (RSV Long strain): 5 nM

Compound: NC1CN(c2nc(N3CCS(=O)(=O)c4ccccc4C3)nc3ccc(C(F)F)cc23)C1 [Example 4, 4-(4-(3-Aminoazetidin-1-yl)-6-(difluoromethyl)quinazolin-2-yl)-2,3,4,5-tetrahydrobenzo[f][1,4]thiazepine 1,1-dioxide]
- AUC(0-inf) ([2]; iv, i.v. 2 mg/kg): 1010 ng·h/mL
- Cmax ([2]; iv, i.v. 2 mg/kg): 82.4 ng/mL
- Tmax ([2]; iv, i.v. 2 mg/kg): 4 h
- clearance ([2]; iv, i.v. 2 mg/kg): 32.8 mL/min/kg
- half-life ([2]; iv, i.v. 2 mg/kg): 3.4 h
- AUC(0-t) ([2]; iv, i.v. 2 mg/kg): 1010 ng·h/mL
- Vd ([2]; iv, i.v. 2 mg/kg): 13.1 L/kg
- AUC(0-inf) ([2]; po, p.o. 10 mg/kg): 3780 ng·h/mL
- Cmax ([2]; po, p.o. 10 mg/kg): 505 ng/mL
- Tmax ([2]; po, p.o. 10 mg/kg): 2 h
- half-life ([2]; po, p.o. 10 mg/kg): 3.3 h
- AUC(0-t) ([2]; po, p.o. 10 mg/kg): 3760 ng·h/mL
- concentration at 0.083 h ([2]; iv, i.v. 2 mg/kg): 38 ng/mL
- concentration at 0.25 h ([2]; iv, i.v. 2 mg/kg): 38.4 ng/mL
- concentration at 0.5 h ([2]; iv, i.v. 2 mg/kg): 30.7 ng/mL
- concentration at 1 h ([2]; iv, i.v. 2 mg/kg): 34.5 ng/mL
- concentration at 2 h ([2]; iv, i.v. 2 mg/kg): 43.9 ng/mL
- concentration at 4 h ([2]; iv, i.v. 2 mg/kg): 82.4 ng/mL
- concentration at 8 h ([2]; iv, i.v. 2 mg/kg): 62.8 ng/mL
- concentration at 24 h ([2]; iv, i.v. 2 mg/kg): 1.7 ng/mL
- concentration at 0.083 h ([2]; po, p.o. 10 mg/kg): 49.7 ng/mL
- concentration at 0.25 h ([2]; po, p.o. 10 mg/kg): 274 ng/mL
- concentration at 0.5 h ([2]; po, p.o. 10 mg/kg): 407 ng/mL
- concentration at 1 h ([2]; po, p.o. 10 mg/kg): 432 ng/mL
- concentration at 2 h ([2]; po, p.o. 10 mg/kg): 505 ng/mL
- concentration at 4 h ([2]; po, p.o. 10 mg/kg): 380 ng/mL
- concentration at 8 h ([2]; po, p.o. 10 mg/kg): 128 ng/mL
- concentration at 24 h ([2]; po, p.o. 10 mg/kg): 5.4 ng/mL
- F [2]: 74.6%
- IC50 (RSV Long strain): 7 nM

Compound: NCC1(CO)CN(c2nc(N3CCS(=O)(=O)c4ccccc4C3)nc3ccc(C(F)F)cc23)C1 [Example 5, 4-(4-(3-(Aminomethyl)-3-(hydroxymethyl)azetidin-1-yl)-6-(difluoromethyl)quinazolin-2-yl)-2,3,4,5-tetrahydrobenzo[f][1,4]thiazepine 1,1-dioxide]
- IC50 (RSV Long strain): 7.9 nM

Compound: O=S1(=O)CCN(c2nc(NC3CNC3)c3cc(C(F)F)ccc3n2)Cc2ccccc21 [Example 6, 4-(4-(Azetidin-3-ylamino)-6-(difluoromethyl)quinazolin-2-yl)-2,3,4,5-tetrahydrobenzo[f][1,4]thiazepine 1,1-dioxide]
- IC50 (RSV Long strain): 4.9 nM

Compound: NC1(CNc2nc(N3CCS(=O)(=O)c4ccccc4C3)nc3ccc(C(F)F)cc23)COC1 [Example 7, 4-(4-(((3-Aminooxetan-3-yl)methyl)amino)-6-(difluoromethyl)quinazolin-2-yl)-2,3,4,5-tetrahydrobenzo[f][1,4]thiazepine 1,1-dioxide]
- AUC(0-inf) ([2]; iv, i.v. 2 mg/kg): 579 ng·h/mL
- Cmax ([2]; iv, i.v. 2 mg/kg): 815 ng/mL
- Tmax ([2]; iv, i.v. 2 mg/kg): 0.08 h
- clearance ([2]; iv, i.v. 2 mg/kg): 57.6 mL/min/kg
- half-life ([2]; iv, i.v. 2 mg/kg): 1.6 h
- AUC(0-t) ([2]; iv, i.v. 2 mg/kg): 573 ng·h/mL
- Vd ([2]; iv, i.v. 2 mg/kg): 3.33 L/kg
- AUC(0-inf) ([2]; po, p.o. 10 mg/kg): 481 ng·h/mL
- Cmax ([2]; po, p.o. 10 mg/kg): 287 ng/mL
- Tmax ([2]; po, p.o. 10 mg/kg): 0.5 h
- half-life ([2]; po, p.o. 10 mg/kg): 1.3 h
- AUC(0-t) ([2]; po, p.o. 10 mg/kg): 476 ng·h/mL
- concentration at 0.083 h ([2]; iv, i.v. 2 mg/kg): 815 ng/mL
- concentration at 0.25 h ([2]; iv, i.v. 2 mg/kg): 540 ng/mL
- concentration at 0.5 h ([2]; iv, i.v. 2 mg/kg): 335 ng/mL
- concentration at 1 h ([2]; iv, i.v. 2 mg/kg): 128 ng/mL
- concentration at 2 h ([2]; iv, i.v. 2 mg/kg): 35 ng/mL
- concentration at 4 h ([2]; iv, i.v. 2 mg/kg): 12.3 ng/mL
- concentration at 8 h ([2]; iv, i.v. 2 mg/kg): 2.7 ng/mL
- concentration at 12 h ([2]; iv, i.v. 2 mg/kg): 1.3 ng/mL
- concentration at 24 h ([2]; iv, i.v. 2 mg/kg): 1.5 ng/mL
- concentration at 0.083 h ([2]; po, p.o. 10 mg/kg): 233 ng/mL
- concentration at 0.25 h ([2]; po, p.o. 10 mg/kg): 262 ng/mL
- concentration at 0.5 h ([2]; po, p.o. 10 mg/kg): 287 ng/mL
- concentration at 1 h ([2]; po, p.o. 10 mg/kg): 180 ng/mL
- concentration at 2 h ([2]; po, p.o. 10 mg/kg): 50.1 ng/mL
- concentration at 4 h ([2]; po, p.o. 10 mg/kg): 16.7 ng/mL
- concentration at 8 h ([2]; po, p.o. 10 mg/kg): 4.6 ng/mL
- concentration at 12 h ([2]; po, p.o. 10 mg/kg): 2.9 ng/mL
- concentration at 24 h ([2]; po, p.o. 10 mg/kg): 1.4 ng/mL
- F [2]: 16.62%
- IC50 (RSV Long strain): 4.1 nM

Compound: Cc1ccc2nc(N3CCS(=O)(=O)c4ccccc4C3)nc(NCC3(O)CNC3)c2c1 [Example 8, 4-(4-(((3-Hydroxyazetidin-3-yl)methyl)amino)-6-methylquinazolin-2-yl)-2,3,4,5-tetrahydrobenzo[f][1,4]thiazepine 1,1-dioxide]
- IC50 (RSV Long strain): 2.9 nM

Compound: Cc1ccc2nc(N3CCS(=O)(=O)c4ccccc4C3)nc(N3CCC(O)(CN)C3)c2c1 (centres unmarked) [Example 9, 4-(4-(3-(Aminomethyl)-3-hydroxypyrrolidin-1-yl)-6-methylquinazolin-2-yl)-2,3,4,5-tetrahydrobenzo[f][1,4]thiazepine 1,1-dioxide]
- IC50 (RSV Long strain): 0.9 nM

Compound: Cc1ccc2nc(N3CCS(=O)(=O)c4ccccc4C3)nc(N3CC(O)(CN)C3)c2c1 [Example 10, 4-(4-(3-(Aminomethyl)-3-hydroxyazetidin-1-yl)-6-methylquinazolin-2-yl)-2,3,4,5-tetrahydrobenzo[f][1,4]thiazepine 1,1-dioxide]
- IC50 (RSV Long strain): 3.3 nM

Compound: Cc1cn2nc([C@@H]3CCCCN3C(=O)c3cc(Cl)ccc3NS(C)(=O)=O)cc2nc1N1CC[C@H](N)C1 [GS-5806]
- viral load, mucus quantity and symptom scores (RSV): decrease viral load, mucus quantity and symptom scores

Further lines, results first:

- IC50 (RSV Long strain): 1.2 nM
Compound: Cc1ccc2nc(N3CCS(=O)(=O)c4ccccc4C3)nc(N3CC(CN)C3)c2c1 [Example 11, 4-(4-(3-(Aminomethyl)azetidin-1-yl)-6-methylquinazolin-2-yl)-2,3,4,5-tetrahydrobenzo[f][1,4]thiazepine 1,1-dioxide]

- IC50 (RSV Long strain): 1.7 nM
Compound: Cc1ccc2nc(N3CCS(=O)(=O)c4ccccc4C3)nc(NC3CC(N)C3)c2c1 (centres unmarked) [Example 12, 4-(4-((3-Aminocyclobutyl)amino)-6-methylquinazolin-2-yl)-2,3,4,5-tetrahydrobenzo[f][1,4]thiazepine 1,1-dioxide]

- IC50 (RSV Long strain): 9.6 nM
Compound: Cc1ccc2nc(N3CCS(=O)(=O)c4ccccc4C3)nc(N3CC(N)(CN)C3)c2c1 [Example 13, 4-(4-(3-Amino-3-(aminomethyl)azetidin-1-yl)-6-methylquinazolin-2-yl)-2,3,4,5-tetrahydrobenzo[f][1,4]thiazepine 1,1-dioxide]

- IC50 (RSV Long strain): 1.3 nM
Compound: Cc1ccc2nc(N3CCS(=O)(=O)c4ccccc4C3)nc(N[C@H]3CNC[C@@H]3O)c2c1 [Example 14, 4-(4-(((3S,4S)-4-hydroxypyrrolidin-3-yl)amino)-6-methylquinazolin-2-yl)-2,3,4,5-tetrahydrobenzo[f][1,4]thiazepine 1,1-dioxide]

- IC50 (RSV Long strain): 3.7 nM
Compound: Cc1ccc2nc(N3CCS(=O)(=O)c4ccccc4C3)nc(NC3CC4(CNC4)C3)c2c1 [Example 15, 4-(4-((2-azaspiro[3.3]heptan-6-yl)amino)-6-methylquinazolin-2-yl)-2,3,4,5-tetrahydrobenzo[f][1,4]thiazepine 1,1-dioxide]
